Assay results as given in patent publication US9464064B2, “HCV helicase inhibitors and methods of use thereof” (University of Kansas, priority 2011, dated 2016).

Biological target: T1, HCV NS3 helicase NS3h_1b(con1) (Hepatitis C virus genotype 1b, UniProt Q9WMX2)
T1 construct: truncated C-terminally His-tagged NS3 proteins lacking the N-terminal protease, called NS3h; His-tag (C); made in house
Assay: MBHA screen of NCI mechanistic set library at 20 μM (percent inhibition, compound interference)
Type: biochemical
Details: compounds at 20 μM; for Inh. (%) (Inhibition): calculated from Equation 1
Procedure, shortened: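 Molecular beacon-based DNA unwinding assay; compounds screened at 20 μM in triplicate, with DMSO-only negative and 500 nM dT20 positive controls. Fluorescence (ex 643/em 670 nm) was read before and 30 min after adding ATP to 1 mM. Percent inhibition came from the change relative to DMSO controls; interference from pre-ATP fluorescence versus DMSO controls.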

[1] = MBHA with DNA substrate, assay interference calculated with Equation 2
[2] = assay interference calculated with Equation 2 (fluorescence vs DMSO-only controls before ATP)

T1 sequence (Q9WMX2 1192-1657): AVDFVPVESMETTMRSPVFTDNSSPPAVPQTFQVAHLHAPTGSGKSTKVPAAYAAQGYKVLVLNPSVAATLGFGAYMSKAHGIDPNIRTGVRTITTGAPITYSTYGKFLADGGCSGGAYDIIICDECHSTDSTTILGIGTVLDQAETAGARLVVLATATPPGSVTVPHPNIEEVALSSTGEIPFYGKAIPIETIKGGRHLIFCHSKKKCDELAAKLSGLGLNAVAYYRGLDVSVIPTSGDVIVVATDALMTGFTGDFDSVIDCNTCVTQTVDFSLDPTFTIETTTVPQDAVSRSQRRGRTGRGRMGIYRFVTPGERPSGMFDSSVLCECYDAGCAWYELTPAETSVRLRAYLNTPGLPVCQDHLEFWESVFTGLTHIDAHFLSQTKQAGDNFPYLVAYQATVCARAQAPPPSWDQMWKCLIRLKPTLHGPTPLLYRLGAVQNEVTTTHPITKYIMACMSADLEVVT

SMILES | Int.* (Ratio) (Interference) [1] | Inh. (%) (Inhibition) (MBHA with DNA substrate) | Inh. (%) (Inhibition) (MBHA with a DNA substrate) | Int.* (Ratio) (Interference) [2]
Cc1c(Cl)cccc1NC(=O)c1cccc([N+](=O)[O-])c1O [Compound 328477] | 0.96 Ratio | −0.8% |  | 
COc1cc2oc(=O)cc(C)c2cc1[N+](=O)[O-] [Compound 299879] | 0.94 Ratio | 20.5% |  | 
CN(NC1=NCCO1)c1ccc2ccccc2c1 [Compound 664286] |  |  | −22.3% | 1.18 Ratio
CN(C)C(=S)/N=c1\ss/c(=N\C(=S)N(C)C)n1-c1ccc2c(c1)OCO2 [Compound 622589] |  |  | −21.0% | 0.94 Ratio
CC(=O)O[C@H]1C[C@H](O[C@H]2[C@@H](O)C[C@H](O[C@H]3[C@@H](O)C[C@H](O[C@H]4CC[C@@]5(C)[C@H](CC[C@@H]6[C@@H]5CC[C@]5(C)[C@@H](C7=CC(=O)OC7)CC[C@]65O)C4)O[C@@H]3C)O[C@@H]2C)OC(C)[C@H]1O[C@@H]1O[C@H](CO)[C@@H](O)[C@H](O)[C@H]1O (some centres unmarked) [Compound 7532] |  |  | −3.4% | 0.89 Ratio
CC(=O)/C(C)=N/NC(=O)c1ccccc1O [Compound 635441] | 0.92 Ratio | 16.7% |  | 
O=c1cccccc1O [Compound 89303] | 0.93 Ratio | 15.8% |  | 
CCOC(=O)Cc1cc(=O)oc2cc(O)ccc12 [Compound 667235] | 1.06 Ratio | 12.3% |  | 
COc1ccc2c(c1)C=C([N+](=O)[O-])C(C1OC(C)(C)OC1C1COC(C)(C)O1)O2 (centres unmarked) [Compound 618261] |  |  | −6.4% | 0.95 Ratio
CC[C@@]1(O)C[C@H](O[C@H]2C[C@H](N(C)C)[C@H](O[C@H]3C[C@@H]4O[C@H]5CC(=O)[C@H](C)O[C@H]5O[C@@H]4[C@H](C)O3)[C@H](C)O2)c2c(cc3c(c2O)C(=O)c2c(O)ccc(O)c2C3=O)[C@H]1C(=O)OC [Compound 243023] | 0.46 Ratio | 24.2% |  | 
Cc1ccccc1NC(=O)C(=O)C(C(=O)c1ccccc1F)C1OC(=O)c2ccccc21 (centres unmarked) [Compound 641228] |  |  | −39.7% | 0.92 Ratio
N[C@@H](CSC(c1ccccc1)(c1ccccc1)c1ccccc1)C(=O)O [Compound 83265] |  |  | −22.5% | 0.98 Ratio
COc1cc2cc3c4cc(OC)c(OC)cc4cc[n+]3c(C)c2cc1OC.O=C(O)CS(=O)(=O)[O-] [Compound 154890] | 0.29 Ratio | 79.4% |  | 
Cc1ccc(S(=O)(=O)SC/C=C/CSS(=O)(=O)c2ccc(C)cc2)cc1 [Compound 624158] |  |  | 9.2% | 0.90 Ratio
Nc1ncnc2c1ncn2[C@@H]1O[C@H](CO)C[C@H]1O [Compound 63984] | 1.11 Ratio | −0.8% |  | 
O=C([O-])c1ccc(Nc2c3ccccc3nc3ccccc23)cc1.[Na+] [Compound 235082] |  |  | −6.4% | 1.02 Ratio
CC(C)(C)c1ccc(O)c(CN(Cc2cc(C(C)(C)C)ccc2O)C2CCCCC2)c1 [Compound 48151] | 0.98 Ratio | 2.1% |  | 
C/C(=N\NC(=S)N1CCC1)c1ccccn1 [Compound 319726] | 1.02 Ratio | 3.2% |  | 
CC(C)c1ccc(O)c(=O)cc1 [Compound 18805] | 0.98 Ratio | 31.0% |  | 
Cn1cnc([N+](=O)[O-])c1Sc1nnc(-c2cccnc2)n1C [Compound 631160] |  |  | 9.9% | 0.91 Ratio
CC(=O)c1sc2c(c1OC(=O)c1ccc(Cl)cc1Cl)c(=O)n(-c1ccccc1)c(=S)n2-c1ccccc1 [Compound 671136] | 0.90 Ratio | 1.2% |  | 
O=C(ON=C1c2ccccc2C(Br)C(Br)c2ccccc21)c1ccccc1 (centres unmarked) [Compound 670140] | 0.95 Ratio | 15.2% |  | 
CCOC(OCC)C(CC)[Se]c1ccccc1[N+](=O)[O-] (centres unmarked) [Compound 646200] |  |  | −3.7% | 1.14 Ratio
Cc1ccc(S(=O)(=O)c2ccc([N+](=O)[O-])o2)cc1 [Compound 697923] | 1.07 Ratio | −14.4% |  | 
O=c1[nH]c2ccc(O)cc2o1 [Compound 603719] |  |  | −5.7% | 1.20 Ratio
CCN(CC)CCNc1ccc2nc(C)n3c4ccc(OC)cc4c(=O)c1c23.Cl [Compound 637993] | 0.77 Ratio | 37.7% |  | 
COc1ccc(/C=C2/C(=O)N(C(=O)c3ccccc3O)N=C2C)cc1 [Compound 652174] | 0.87 Ratio | 33.4% |  | 
O=S1(=O)OCCOS(=O)(=O)C1Cc1ccccc1 [Compound 634863] | 0.99 Ratio | −18.2% |  | 

SMILES | Int.* (Ratio) (Interference) [1] | Inh. (%) (Inhibition) (MBHA with DNA substrate) | Inh. (%) (Inhibition) (MBHA with a DNA substrate) | Int.* (Ratio) (Interference) [2]
COc1c(O[C@@H]2O[C@H](CO)[C@@H](O)[C@H](O)[C@H]2O)cc2c(c1OC)-c1ccc(OC)c(=O)cc1[C@@H](NC(C)=O)CC2 [Compound 32992] |  |  | −28.7% | 1.04 Ratio
Nc1ncnc2c1nc(Cl)n2[C@@H]1O[C@@H]2COP(=O)(O)O[C@H]2[C@H]1O [Compound 284751] |  |  | −4.0% | 1.05 Ratio
CC1=C(N2CC2)C(=O)C(CO)=C(N2CC2)C1=O [Compound 697726] |  |  | −5.6% | 0.90 Ratio
CCOC(=O)C1=C(O)CSC1=Nc1ccc(N=C2SCC(O)=C2C(=O)OCC)cc1 [Compound 623746] |  |  | −29.6% | 0.99 Ratio
CCOC(=O)c1cc2c(OC)cc(OC)cc2oc1=O [Compound 111119] | 1.16 Ratio | 6.3% |  | 
COc1ccc(C[C@@H]2NC[C@@H](O)[C@@H]2OC(C)=O)cc1.Cl [Compound 147340] |  |  | −5.2% | 1.01 Ratio
CC(C)c1ccc2nc3ccc(C(=O)NCCN(C)C)cn3c(=O)c2c1 [Compound 600305] | 0.91 Ratio | 26.6% |  | 
OCC1OC(n2cnc3c(=S)nc[nH]c32)C(O)C1O (centres unmarked) [Compound 406021] | 1.10 Ratio | 1.7% |  | 
CC(C)CCCCCCCCCCCCC(=O)NCC(=O)NC1C(C)OC(Nc2ncnc3nc[nH]c23)C(O)C1O (centres unmarked) [Compound 268251] | 0.96 Ratio | 0.2% |  | 
COc1nc(N)nc2nc[nH]c12 [Compound 37364] | 1.01 Ratio | 16.5% |  | 
Nc1ccc2nc3ccc(=O)cc-3n(-c3ccccc3)c2c1 [Compound 31702] | 0.92 Ratio | −9.7% |  | 
CN(C)c1ccc(/C=C/C(=O)c2ccccc2)cc1Br [Compound 643164] | 0.86 Ratio | 14.9% |  | 
Oc1[nH]c2ccccc2c1N=Nc1c(F)c(F)c(F)c(F)c1F [Compound 116535] | 0.93 Ratio | 5.9% |  | 
COC(=O)C1(C)CCCC2(C)c3cc(OC)ccc3C(=O)C(Br)C12 (centres unmarked) [Compound 169600] | 0.90 Ratio | 0.0% |  | 
CCOC(=O)NC(Nc1ccc(F)cc1)(C(=O)OCC)C(F)(F)F (centres unmarked) [Compound 684845] |  |  | −5.0% | 0.91 Ratio
O=c1cnn(C2OC(CO)C(O)C2O)c(=S)[nH]1 (centres unmarked) [Compound 146268] | 1.15 Ratio | 0.2% |  | 
COc1ccc2oc(-c3ccncc3)cc(=O)c2c1 [Compound 54650] | 1.11 Ratio | 24.7% |  | 
COc1ccc2nc(C)cc(NCCCCCCCCCNc3cc(C)nc4ccc(OC)cc34)c2c1 [Compound 10010] | 0.23 Ratio | 56.7% |  | 
CCS(=O)(=O)Nc1ccc(Nc2c3ccccc3nc3ccccc23)c(OC)c1.CS(=O)(=O)O [Compound 243928] | 0.87 Ratio | 3.4% |  | 
Cc1ccc([S+](c2ccc(C)cc2)c2ccc(C)cc2)cc1 [Compound 157930] |  |  | 7.6% | 0.86 Ratio
CN(C)c1ccc(/C=N/N=C2\C(=O)Nc3c(Cl)cc(Cl)cc32)cc1 [Compound 327697] | 1.22 Ratio | −10.2% |  | 
NC1(C(=O)O)CCCC1 [Compound 1026] |  |  | 9.0% | 0.90 Ratio
COC(=O)C1=C(C(=O)OC)SC2(S1)C(C(=O)OC)=C(C(=O)OC)Sc1c2ssc1=O [Compound 686349] | 0.85 Ratio | −14.4% |  | 
Cc1cc(-c2nc3ccccc3s2)ccc1N [Compound 674495] | 0.98 Ratio | −7.5% |  | 
Cl.NCCSSCc1ccccc1CSSCCN [Compound 624169] |  |  | 7.7% | 0.96 Ratio
Nc1ccn([C@@H]2C=C(CO)[C@@H](O)[C@H]2O)c(=O)n1 [Compound 375575] | 0.93 Ratio | 12.9% |  | 
Clc1ccc(C(c2ccccc2Cl)C(Cl)Cl)cc1 (centres unmarked) [Compound 38721] | 0.93 Ratio | 0.3% |  | 
